Laboratory results: the supplement of paper PMC5770543
± gives the standard deviation.

Key:
[1] = tested on: Toxoplasma gondii RH tachyzoites; assay: % growth inhibition vs DMSO (48 h luciferase); higher = more inhibition; conditions: 10 µM
[2] = tested on: Plasmodium falciparum 3D7; assay: % inhibition of schizont-to-ring transition vs DMSO; higher = more inhibition
Procedure, shortened: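 Schizont-to-ring transition inhibition is the formation of new rings relative to vehicle controls. Tightly synchronised P. falciparum schizonts at about 40–42 hours post-invasion (1% parasitemia, 2.5% hematocrit, AlbuMAX-supplemented RPMI) were treated with compound at 1, 3 or 10 µM, alongside vehicle and positive controls. After glutaraldehyde fixation, Triton permeabilisation and Hoechst 33342 staining, at least 100,000 events were counted by flow cytometry, and values are the mean of three experiments.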

[3] = tested on: Plasmodium falciparum 3D7; assay: EC50 growth inhibition (60 h, SYBR Green); conditions: stage: ring-stage start
[4] = tested on: Toxoplasma gondii RH tachyzoites; assay: plaque count per well; higher = less inhibition; extreme values may be limits of the assay; conditions: 10 µM; 8-10 days
Protocol: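 T. gondii RH tachyzoites expressing firefly luciferase were grown in HFF monolayers for 48 h with compound. % growth inhibition at 10 µM and EC50 (2-fold dilutions from 10 µM) were read by luminescence relative to 1% DMSO; EC50 listed as 10 (not determined, <80% inhibition) is left out. Plaque assays: 50 tachyzoites per well with 10 µM compound for 8-10 days, giving plaque count and area by crystal violet/ImageJ. Egress: median time to egress after 1 µM A23187 ionophore following 24 h of 10 µM compound (DMSO ~1.8 min; >10 = no egress within 10 min).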
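For % growth inhibition vs DMSO (48 h luciferase) in this document: tested in triplicate wells of 96-well plates on confluent HFF monolayers, with 1% DMSO wells as negative control in four replicates.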

| SMILES | % growth inhibition [1] [%] | % inhibition of schizont-to-ring transition ([2]; 1 µM) [%] | % inhibition of schizont-to-ring transition ([2]; 3 µM) [%] | % inhibition of schizont-to-ring transition ([2]; 10 µM) [%] | EC50 growth inhibition [3] [nM] | plaque count per well [4] |
| --- | --- | --- | --- | --- | --- | --- |
| COc1ccc(-c2cn3c(C(=O)Nc4ccccc4Cl)c(-c4ccccc4)c4c3n2CCCC4)cc1 | 42.7 ± 28 | 12.5 | 30.4 | 62.3 | 7130 | – |
| COc1ccc2nc(C)cc(Nc3ccccc3O)c2c1 | 22.7 ± 2.9 | 20.4 | 41.3 | 66.3 | 438 | – |
| O=C(c1ccccc1F)N(Cc1ccc(Cl)cc1)c1ccccn1 | 82.2 ± 3.3 | 2.8 | 7.52 | 13.9 | 5700 | – |
| O=c1cc(NC2CCN(CCCc3ccccc3)CC2)c2cc(Cl)ccc2o1 | 22 ± 19 | 61.1 | 66.7 | 68.9 | 396 | – |
| COc1cc2c3cc1Oc1c(OC)c(OC)cc4c1C(Cc1ccc(O)c(c1)Oc1ccc(cc1)CC3N(C)CC2)N(C)CC4 (stereo not given) | 51.7 ± 6.6 | 0.0123 | 3.67 | 27.2 | 1360 | – |
| O=C(NNc1cc(N2CCCC2)nc(N2CCCC2)n1)c1ccccc1 | 27.4 ± 0.88 | 16.2 | 24.6 | 62.1 | 6540 | – |
| Cc1ccc2c(C)nc(Nc3nc(C)cc(-c4ccccc4)n3)nc2c1 | 70.4 ± 25 | 17.7 | 37.8 | 55.7 | 6670 | – |
| CC1CCN(Cc2c(O)ccc3cc(-c4nc5ccccc5s4)c(=O)oc23)CC1 | 18.7 ± 17 | 6.51 | 20.3 | 38.2 | – | 0 |
| COc1ccc(C2C(C(=O)Nc3cccc(OC)c3)c3ccccc3C(=O)N2C2CCCCC2)cc1 (stereo not given) | 13.5 ± 15 | 12.8 | 71.3 | 76.4 | – | 0 |
| CCCCCCc1cc2cc(-c3nc4ccccc4[nH]3)c(=Nc3ccccc3C)oc2cc1O | < 0 | 9.35 | 11.5 | 23.5 | – | 3 |
| O=C(NCc1ccco1)C1CCN(S(=O)(=O)c2ccc(Cl)cc2)CC1 | 55.4 ± 6.6 | 21.3 | 34.6 | 57.8 | 1030 | – |
| COc1ccccc1CNC(=O)CCn1c(=O)[nH]c2ccccc2c1=O | 79.9 ± 5.7 | 8.85 | 11.5 | 18.6 | 663 | – |
| CN1CCN(c2ncnc3c2[nH]c2ccc(Cl)cc23)CC1 | 28.6 ± 4.2 | 34 | 43.8 | 54.7 | 894 | – |
| O=C1c2ccccc2-c2nnc(-c3ccc(Br)cc3)cc21 | < 0 | 5.35 | 17.7 | 32.6 | – | 24 |
| Cc1ccc(OCCCCCCNCCO)c(C)c1 | 76.2 ± 4.2 | 6.39 | 6.91 | 13.8 | 2870 | – |
| O=C(NC1CCCC1)c1ccc(N2CCC(NCc3cccc(C(F)(F)F)c3)CC2)cc1 | 74.7 ± 1.2 | 0.815 | 7.92 | 41.6 | 2010 | – |
| Cc1ccc(N2C(=O)C3C(C2=O)C2(c4ccccc4)C(=O)C3(c3ccccc3)C(c3ccccc3)=C2c2ccccc2)cc1 (stereo not given) | 55.5 ± 9.4 | < 0 | < 0 | 24.4 | 4250 | – |
